Assay [1] has as its target T1, baculovirus-expressed ALK (Homo sapiens, UniProt Q9UM73).
T1 construct: host or cells: baculovirus expression system
The assay can be described thus: ALK Kinase Assay (ELISA-type, time-resolved fluorescence). The assay is classed as biochemical. An outline of the steps: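 Wells were coated with phospholipase C-γ at 10 μg/mL in Tris-buffered saline. Adding 30 ng/ml enzyme started the reaction, which ran at 37° C for 15 minutes before Eu-N1 PT66 antibody detection. Percent inhibition versus log10 concentration gave IC50 by variable-slope fit.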
(An ELISA detects its analyte on a solid surface through an enzyme-linked reagent.)

In assay [2] the target is T2, c-Met (cytoplasmic domain) (Homo sapiens, UniProt P08581).
T2 construct: 10 ng/mL c-Met (cytoplasmic domain, Invitrogen Corporation #PV3143); purchased Invitrogen Corporation PV3143
T2 sequence (P08581 956-1390 limits assumed): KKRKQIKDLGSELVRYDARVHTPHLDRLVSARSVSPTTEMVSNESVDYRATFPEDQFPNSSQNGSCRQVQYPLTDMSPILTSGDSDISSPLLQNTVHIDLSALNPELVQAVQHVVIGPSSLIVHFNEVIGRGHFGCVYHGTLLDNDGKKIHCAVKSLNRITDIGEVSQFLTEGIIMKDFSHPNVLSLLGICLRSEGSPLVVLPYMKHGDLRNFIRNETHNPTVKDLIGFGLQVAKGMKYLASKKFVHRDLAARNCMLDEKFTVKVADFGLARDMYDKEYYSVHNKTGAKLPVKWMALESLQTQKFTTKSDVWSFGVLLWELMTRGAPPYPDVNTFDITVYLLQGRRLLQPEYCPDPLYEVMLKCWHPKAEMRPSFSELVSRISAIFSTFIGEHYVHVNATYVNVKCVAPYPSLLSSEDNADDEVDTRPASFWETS
The experiment in a line: c-Met Kinase Assay (same methods as for ALK, with modifications). The format is biochemical. As to the method: Briefly, each 96-well plate was coated with 100 μL/well of 10 μg/mL substrate (phospholipase C-γ) in Tris-buffered saline (TBS). […] The reaction was initiated by adding enzyme (30 ng/ml ALK) and was allowed to proceed at 37° C. for 15 minutes. Detection of the phosphorylated product was performed by adding 100 μl/well of Eu-N1 labeled PT66 antibody (Perkin Elmer # AD0041).
Data analysis was performed using ActivityBase (IDBS, Guilford, UK). IC50 values were calculated by plotting percent inhibition versus log10 of the concentration of compound and fitting to the nonlinear regression sigmoidal dose-response (variable slope) equation in XLFit (IDBS, Guilford, UK).
Reactions were initiated with 10 ng/mL c-Met (cytoplasmic domain, Invitrogen Corporation #PV3143).

Where [3] appears, read: 1 μM ATP (Km level), 30 ng/ml ALK, 37° C., 15 minutes, read-out: ALK Activity (ALK kinase inhibition, IC50 class).
The mark [4] stands for this setting: ALK kinase inhibition, 1 μM ATP (Km level), read-out: ALK Activity.
Setting [5] is: c-Met kinase inhibition, 1 μM ATP (Km level), read-out: cMet Activity.
[6] abbreviates: 1 μM ATP (Km level), read-out: ALK Activity (ALK Kinase Inhibition, IC50).
The mark [7] stands for this setting: 1 μM ATP (Km level), read-out: cMet Activity (c-Met Kinase Inhibition, IC50).

The structures appear in SMILES notation. Where a name gives a salt, the structure may show the parent alone. Read-outs that look alike come from different tables or passages of the source.

T1 sequence (Q9UM73 19-1620): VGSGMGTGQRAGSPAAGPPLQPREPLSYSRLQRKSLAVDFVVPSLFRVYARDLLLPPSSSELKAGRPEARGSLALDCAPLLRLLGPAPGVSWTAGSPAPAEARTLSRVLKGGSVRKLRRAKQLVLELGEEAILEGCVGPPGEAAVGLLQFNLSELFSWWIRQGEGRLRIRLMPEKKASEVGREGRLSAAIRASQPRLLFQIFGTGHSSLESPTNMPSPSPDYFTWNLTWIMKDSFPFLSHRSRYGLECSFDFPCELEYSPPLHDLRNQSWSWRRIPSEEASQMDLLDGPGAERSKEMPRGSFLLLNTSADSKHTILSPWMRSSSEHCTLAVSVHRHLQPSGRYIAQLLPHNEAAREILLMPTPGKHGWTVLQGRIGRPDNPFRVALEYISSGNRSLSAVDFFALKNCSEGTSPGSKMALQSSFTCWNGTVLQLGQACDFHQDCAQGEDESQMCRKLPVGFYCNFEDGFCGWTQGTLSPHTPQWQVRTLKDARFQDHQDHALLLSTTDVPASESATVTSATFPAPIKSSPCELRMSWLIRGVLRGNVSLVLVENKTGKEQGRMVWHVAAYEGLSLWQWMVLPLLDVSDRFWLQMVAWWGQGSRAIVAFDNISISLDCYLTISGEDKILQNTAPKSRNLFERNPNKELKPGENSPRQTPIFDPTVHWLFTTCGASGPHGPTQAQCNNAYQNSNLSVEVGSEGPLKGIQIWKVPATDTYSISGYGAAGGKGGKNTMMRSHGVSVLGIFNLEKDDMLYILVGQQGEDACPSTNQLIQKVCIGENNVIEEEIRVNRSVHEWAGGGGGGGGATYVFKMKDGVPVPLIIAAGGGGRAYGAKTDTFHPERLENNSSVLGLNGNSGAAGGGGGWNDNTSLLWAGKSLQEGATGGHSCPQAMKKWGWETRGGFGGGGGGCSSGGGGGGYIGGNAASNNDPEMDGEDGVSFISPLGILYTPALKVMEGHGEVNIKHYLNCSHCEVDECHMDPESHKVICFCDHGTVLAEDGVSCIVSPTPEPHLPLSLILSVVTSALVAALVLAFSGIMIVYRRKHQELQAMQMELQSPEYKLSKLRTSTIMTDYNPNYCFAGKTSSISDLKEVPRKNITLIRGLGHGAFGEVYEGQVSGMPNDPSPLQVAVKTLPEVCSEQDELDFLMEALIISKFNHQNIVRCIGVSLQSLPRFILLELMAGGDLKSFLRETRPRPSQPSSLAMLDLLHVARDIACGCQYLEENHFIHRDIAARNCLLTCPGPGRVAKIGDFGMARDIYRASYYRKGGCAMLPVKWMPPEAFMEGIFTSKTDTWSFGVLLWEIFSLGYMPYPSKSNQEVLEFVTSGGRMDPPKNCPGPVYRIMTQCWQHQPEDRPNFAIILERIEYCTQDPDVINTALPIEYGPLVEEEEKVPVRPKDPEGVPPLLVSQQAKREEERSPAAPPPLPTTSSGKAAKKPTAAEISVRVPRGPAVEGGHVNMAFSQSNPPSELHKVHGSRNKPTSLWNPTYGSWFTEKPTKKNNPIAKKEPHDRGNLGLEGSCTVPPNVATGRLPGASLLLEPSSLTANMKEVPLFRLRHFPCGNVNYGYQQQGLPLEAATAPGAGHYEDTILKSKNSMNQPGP

`COc1c(Nc2ncc(Cl)c(N[C@H]3[C@@H](C(N)=O)[C@@H]4C=C[C@H]3C4)n2)ccc2c1CC(N1CCOCC1)CCC2` (mixture of isomers) [Example 1204, (1S,2S,3R,4R)-3-[5-Chloro-2-(1-methoxy-8-morpholin-4-yl-6,7,8,9-tetrahydro-5H-benzocyclohepten-2-ylamino)-pyrimidin-4-ylamino]-bicyclo[2.2.1]hept-5-ene-2-carboxylic acid amide]: the IC50 is under 0.1 µM in assay [1] (setting [3]) and over 10 µM in assay [2] (cMet Activity (c-Met kinase inhibition, IC50 class), 1 μM ATP (Km level), 10 ng/mL c-Met).
Turning to `CN([C@@H]1CCCC[C@H]1Nc1nc(Nc2ccc3c(c2)CCC(N2CCOCC2)CC3)ncc1Cl)S(C)(=O)=O` (mixture of isomers) [Example 1681, N-{(1R,2R)-2-[5-Chloro-2-(7-morpholin-4-yl-6,7,8,9-tetrahydro-5H-benzocyclohepten-2-ylamino)-pyrimidin-4-ylamino]-cyclohexyl}-N-methyl-methanesulfonamide], the IC50 is under 0.1 µM in assay [1] (ALK kinase inhibition, 1 μM ATP, read-out: ALK Activity) and 1 to 10 µM in assay [2] (c-Met kinase inhibition, 1 μM ATP, read-out: cMet Activity).
As to `CCN1C2CCC1c1cc(Nc3ncc(Cl)c(Nc4ccccc4C(=O)NC)n3)ccc1C2` (racemic) [Example 101, (+/−)-2-[5-Chloro-2-(12-ethyl-12-aza-tricyclo[7.2.1.0*2,7*]dodeca-2(7),3,5-trien-4-ylamino)-pyrimidin-4-ylamino]-N-methyl-benzamide], the IC50 in assay [1] (setting [4]) and in assay [2] (setting [5]) was under 0.1 µM each time.
With `CNC(=O)c1ccccc1Nc1nc(Nc2ccc3c(c2)C2CCC(C3)N2S(C)(=O)=O)ncc1Cl` (racemic) [Example 102, (+/−)-2-[5-Chloro-2-(12-methanesulfonyl-12-aza-tricyclo[7.2.1.0*2,7*]dodeca-2(7),3,5-trien-4-ylamino)-pyrimidin-4-ylamino]-N-methyl-benzamide], the IC50 in assay [1] (setting [4]) and in assay [2] (setting [5]) was under 0.1 µM each time.
`CNC(=O)c1cccc(F)c1Nc1nc(Nc2ccc3c(c2)CCC(N2CCN(C)CC2)CC3)ncc1Cl` (racemic) [Example 899, 2-{5-Chloro-2-[7-(4-methyl-piperazin-1-yl)-6,7,8,9-tetrahydro-5H-benzocyclohepten-2-ylamino]-pyrimidin-4-ylamino}-3-fluoro-N-methyl-benzamide]: the IC50 in assay [1] (setting [6]) and in assay [2] (setting [7]) was under 0.1 µM each time.
Regarding `COc1c(Nc2ncc(Cl)c(Nc3ccccc3S(=O)(=O)C(C)C)n2)ccc2c1CCC(N1CCN(C)CC1)CC2` (racemic) [Example 914, 5-Chloro-N*2*-[1-methoxy-7-(4-methyl-piperazin-1-yl)-6,7,8,9-tetrahydro-5H-benzocyclohepten-2-yl]-N*4*-[2-(propane-2-sulfonyl)-phenyl]-pyrimidine-2,4-diamine], the IC50 is under 0.1 µM in assay [1] (setting [6]) and 1 to 10 µM in assay [2] (setting [7]).
The matching figures for `CNC(=O)c1ccccc1Nc1nc(Nc2ccc3c(c2OC)CCC(N2CCOCC2)CC3)ncc1Cl` (racemic) [Example 915, 2-[5-Chloro-2-(1-methoxy-7-morpholin-4-yl-6,7,8,9-tetrahydro-5H-benzocyclohepten-2-ylamino)-pyrimidin-4-ylamino]-N-methyl-benzamide]: under 0.1 µM and 1 to 10 µM.
With `COc1c(Nc2ncc(Cl)c(Nc3ccccc3S(=O)(=O)N(C)C)n2)ccc2c1CC(N1CCOCC1)CCC2` (racemic) [Example 1210, 2-[5-Chloro-2-(1-methoxy-8-morpholin-4-yl-6,7,8,9-tetrahydro-5H-benzocyclohepten-2-ylamino)-pyrimidin-4-ylamino]-N,N-dimethyl-benzenesulfonamide], the IC50 in assay [1] (setting [3]) was under 0.1 µM; in assay [2] (1 μM ATP (Km level), 10 ng/mL c-Met, read-out: cMet Activity (c-Met kinase inhibition, IC50 class)), 1 to 10 µM.
Regarding `CCN1C(=O)CCCc2cc(Nc3ncc(Cl)c(N[C@@H]4[C@H]5CC[C@H](C5)[C@@H]4C(N)=O)n3)c(OC)cc21` (relative stereo) [Example 136, (2-exo,3-exo)-3-[5-Chloro-2-(1-ethyl-8-methoxy-2-oxo-2,3,4,5-tetrahydro-1H-benzo[b]azepin-7-ylamino)-pyrimidin-4-ylamino]-bicyclo[2.2.1]heptane-2-carboxylic acid amide], the results for the IC50 in assay [1] (setting [4]) and in assay [2] (setting [5]) were under 0.1 µM and over 10 µM, respectively.
`COc1c(Nc2ncc(Cl)c(N[C@H]3[C@@H](C(N)=O)[C@@H]4C=C[C@H]3C4)n2)ccc2c1CCCC(=O)N2` (relative stereo) [Example 139, (2-exo,3-exo)-3-[5-Chloro-2-(6-methoxy-2-oxo-2,3,4,5-tetrahydro-1H-benzo[b]azepin-7-ylamino)-pyrimidin-4-ylamino]-bicyclo[2.2.1]hept-5-ene-2-carboxylic acid amide]: the IC50 in assay [1] (setting [4]) was under 0.1 µM; in assay [2] (setting [5]) it was over 10 µM.
In the same order, the values of `NC(=O)[C@@H]1[C@H](Nc2nc(Nc3ccc4c(c3)CCC(=O)CC4)ncc2Cl)[C@H]2C=C[C@@H]1C2` (relative stereo) [Example 173, (2-exo,3-exo)-3-[5-Chloro-2-(7-oxo-6,7,8,9-tetrahydro-5H-benzocyclo-hepten-2-ylamino)-pyrimidin-4-ylamino]-bicyclo[2.2.1]hept-5-ene-2-carboxylic acid amide; hydrochloride] are under 0.1 µM and 0.1 to 1 µM.
In the case of `CCN1CCc2ccc(Nc3ncc(Cl)c(N[C@H]4CCC[C@H]4C(N)=O)n3)cc2CC1` (relative stereo) [Example 176, Cis-2-[5-Chloro-2-(3-ethyl-2,3,4,5-tetrahydro-1H-benzo[d]-azepin-7-ylamino)-pyrimidin-4-ylamino]-cyclopentanecarboxylic acid amide], the figures for the IC50 in assay [1] (setting [4]) and in assay [2] (setting [5]) were 0.1 to 1 µM and 1 to 10 µM, respectively.
In the same order, the values of `CCN1CCc2ccc(Nc3ncc(Cl)c(N[C@H]4CCCC[C@H]4C(=O)NC)n3)cc2CC1` (relative stereo) [Example 200, cis-2-[5-Chloro-2-(3-ethyl-2,3,4,5-tetrahydro-1H-benzo[d]azepin-7-ylamino)-pyrimidin-4-ylamino]-cyclohexanecarboxylic acid methylamide] are under 0.1 µM and 0.1 to 1 µM.
The matching figures for `COCCN1CCc2ccc(OC)c(Nc3ncc(Cl)c(N[C@H]4[C@@H](C(N)=O)[C@@H]5C=C[C@H]4C5)n3)c2CC1` (relative stereo) [Example 245, (2-exo,3-exo)-3-{5-Chloro-2-[7-methoxy-3-(2-methoxy-ethyl)-2,3,4,5-tetrahydro-1H-benzo[d]azepin-6-ylamino]-pyrimidin-4-ylamino}-bicyclo[2.2.1]hept-5-ene-2-carboxylic acid amide]: 1 to 10 µM and over 10 µM.
In the same order, the values of `COc1cc2c(cc1Nc1ncc(Cl)c(N[C@@H]3[C@H](C(N)=O)[C@H]4C=C[C@@H]3C4)n1)CCN(CC(F)(F)F)CC2` (relative stereo) [Example 250, (2-exo, 3-exo)-3-{5-Chloro-2-[8-methoxy-3-(2,2,2-trifluoro-ethyl)-2,3,4,5-tetrahydro-1H-benzo[d]azepin-7-ylamino]-pyrimidin-4-ylamino}-bicyclo[2.2.1]hept-5-ene-2-carboxylic acid amide hydrochloride] are under 0.1 µM and over 10 µM.
`COCCN1CCc2ccc(Nc3ncc(Cl)c(N[C@@H]4CCCC[C@H]4O)n3)cc2CC1` (relative stereo) [Example 318, trans-2-{5-Chloro-2-[3-(2-methoxy-ethyl)-2,3,4,5-tetrahydro-1H-benzo[d]azepin-7-ylamino]-pyrimidin-4-ylamino}-cyclohexanol]: the values for the IC50 in assay [1] (setting [4]) and in assay [2] (setting [5]) were 1 to 10 µM and over 10 µM, respectively.
As for `CCN1CCc2ccc(Nc3ncc(Cl)c(N[C@@H]4CCCC[C@H]4O)n3)cc2CC1` (relative stereo) [Example 319, trans-2-[5-Chloro-2-(3-ethyl-2,3,4,5-tetrahydro-1H-benzo[d]azepin-7-ylamino)-pyrimidin-4-ylamino]-cyclohexanol], the IC50 in assay [1] (setting [4]) was 0.1 to 1 µM; in assay [2] (setting [5]), over 10 µM.
As for `C#CCN1CCc2ccc(Nc3ncc(Cl)c(N[C@H]4[C@@H](C(N)=O)[C@@H]5C=C[C@H]4C5)n3)cc2CC1` (relative stereo) [Example 323, (2-exo, 3-exo)-3-[5-Chloro-2-(3-prop-2-ynyl-2,3,4,5-tetrahydro-1H-benzo[d]azepin-7-ylamino)-pyrimidin-4-ylamino]-bicyclo[2.2.1]hept-5-ene-2-carboxylic acid amide], the IC50 in assay [1] (setting [4]) is under 0.1 µM; in assay [2] (setting [5]), 0.1 to 1 µM.
The matching figures for `COCCN1CCc2ccc(Nc3ncc(Cl)c(N[C@@H]4CCC[C@H]4NS(C)(=O)=O)n3)cc2CC1` (relative stereo) [Example 371, N-(trans-2-{5-Chloro-2-[3-(2-methoxy-ethyl)-2,3,4,5-tetrahydro-1H-benzo[d]azepin-7-ylamino]-pyrimidin-4-ylamino}-cyclopentyl)-methanesulfonamide]: 0.1 to 1 µM and 1 to 10 µM.
